# Assay results: PMC9856044 (Biomolecules, 2023)
# Key:
# [1] = biological target: Tel22 (5′-AGGG(TTAGGG)3–3′) G-quadruplex; assay: Fluorimetric titration with Tel22 in potassium phosphate buffer (K+ solution); assay type: binding, human
# Method: Materials. Polynucleotides were purchased as noted: poly A–poly U, calf thymus ctDNA, poly(dAdT)2 and poly(dGdC)2 (Sigma-Aldrich, St. Louis, MI, USA). Polynucleotides were dissolved in Na-cacodylate buffer, I = 0.05 mol dm^−3, pH = 7.0. The calf thymus ctDNA was additionally sonicated and filtered through a […]. Polynucleotide concentration was determined spectroscopically as the concentration of phosphates. Spectrophotometric titrations were performed at pH = 7.0 (I = 0.05 mol dm^−3, sodium cacodylate buffer) by adding aliquots of polynucleotide solution into the solution of the studied compound for fluorimetric experiments and CD experiments were done by adding aliquots of the compound stock solution into the solution of a polynucleotide. In fluorimetric experiments, an excitation wavelength of λexc = 425, 431, 423, 427, 406 and 407 nm, respectively, was used to avoid the inner filter effect caused due to increasing absorbance of the polynucleotide. Emission was collected in the range λem = 400–700 nm. Values for Ka obtained by processing titration data using the Scatchard equation [27], all have satisfactory correlation coefficients (≥0.98).
# (§1) Thermal melting curves for DNA, RNA and their complexes with studied compounds were determined as previously described by following the absorption change at 260 nm as a function of temperature. The absorbance of the ligands was subtracted from every curve and the absorbance scale was normalized. Tm values are the midpoints of the transition curves determined from the maximum of the first derivative and checked graphically by the tangent method. The ∆Tm values were calculated by subtracting Tm of the free nucleic acid from Tm of the complex. Every ∆Tm value here reported was the average of two measurements. The error in ∆Tm is ±0.5 °C. 5′-AGGG(TTAGGG)3–3′(Tel22) was obtained from IDT (Integrated DNA Technologies, Coralville, IA, USA). Tel22 was dissolved in 0.1 M either in sodium cacodylate or potassium phosphate buffer. The starting Tel22 oligonucleotide solution was first heated up to 95 °C for 10 min, then slowly cooled to 10 °C at the cooling rate of 1 °C/min to allow DNA oligonucleotide to adopt a G-quadruplex structure. The G-quadruplex structure was confirmed by thermal melting and CD spectra. The concentration of G quadruplex was expressed in terms of oligonucleotide structure. In fluorimetric titrations, aliquots of Tel 22 solution were added to the solution of ligands (c ~ 2 × 10^−7 M, in SI).
# Binding constants (log Ka) and stoichiometry of complexes were calculated from the fluorimetric data using non-linear least-square program SPECFIT [46], in the concentration range that corresponded to 20–80% complex formed.
# HeLa cells = assay: MTT cytotoxicity assay, HeLa; assay type: cell-based; conditions: Homo sapiens, 72 h incubation, ± SD
# Method: (§2) Human cervical carcinoma HeLa (GIBCO BRL, Invitrogen, Waltham, MA, USA), human melanoma MDA-MB-435S and human ovarian adenocarcinoma SK-OV-3 (ATCC-LGC Standards GmbH, Wesel, Germany) cell lines were purchased from indicated cell culture banks. Normal human skin fibroblasts were isolated from the upper arm of a donor at the Neurochemical Laboratory, Department of Chemistry and Biochemistry, School of Medicine, University of Zagreb. HeLa, MDA-MB-435S and fibroblasts were grown in Dulbecco’s Modified Eagle’s Medium (DMEM; Sigma-Aldrich, St. Louis, MI, USA) while the SK-OV-3 cell line was grown in McCoy’s 5A medium (Capricorn Scientific, Ebsdorfergrund, Germany). All media were supplemented with 10% fetal bovine serum (FBS; Sigma-Aldrich) and 50 I.U./mL penicillin and 50 μg/mL streptomycin. Cells were cultured in a humidified atmosphere of 5% CO2 at 37 °C and were sub-cultured every 3–4 days. HeLa, MDA-MB-435S, SK-OV-3 cells and fibroblasts were seeded in 96 well plates. Twenty-four hours later the cells were treated, in quadruplicate, with different concentrations of compounds (dissolved in DMSO, kept at 4 °C and protected from light). Following 72 h of incubation at 37 °C, the medium was aspired and modified 3-(4,5-dimethylthiazol-2-yl)-2,5-diphenyltetrazolium bromide (MTT) assay was used to determine the cytotoxic effect of the tested compounds. Three hours later, formazan crystals were dissolved in DMSO (0.17 mL/well), the plates were mechanically agitated for 20 min and the optical density at 600 nm was determined on a microtiter plate reader (Awareness Technology Inc., Palm City, FL, USA). The experiments were repeated three times.
# Fibroblasts = assay: MTT cytotoxicity assay, normal human skin fibroblasts; assay type: cell-based; conditions: Fibroblast, 72 h incubation, ± SD
# Method: as §2
# SK-OV-3 cells = assay: MTT cytotoxicity assay, SK-OV-3; assay type: cell-based; conditions: Homo sapiens, SK-OV-3, 72 h incubation, ± SD
# Method: as §2
# Tel22 G-quadruplex [2] = assay: Thermal melting of Tel22 in sodium cacodylate buffer; assay type: binding, human; conditions: Tel22, r = 1.0, sodium cacodylate buffer, pH = 7.0, I = 0.1 mol dm^−3; error ± 0.5 °C
# Method: as §1
# Tel22 G-quadruplex [3] = assay: Thermal melting of Tel22 in potassium phosphate buffer; assay type: binding, human; conditions: Tel22, r = 1.0, potassium phosphate buffer, pH = 7.0, I = 0.1 mol dm^−3; error ±0.5 °C
# Method: as §1
Compound,"logKa (L + G ⇆ LG, 1:1 complex) ([1]; Tel22, potassium phosphate buffer, pH = 7.0, I = 0.1 mol dm^−3, SPECFIT fit)",IC50 (HeLa cells) [µM],IC50 (Fibroblasts) [µM],IC50 (SK-OV-3 cells) [µM],∆Tm (Tel22 G-quadruplex [2]) [°C],∆Tm (Tel22 G-quadruplex [3]) [°C],"log Ka (indicated by steeper slope of titration curves) ([1]; Tel22, K+ solution, no accurate fit possible)"
"CN1/C(=C/c2[se]c3ccccc3[n+]2C)Sc2ccccc21 [Compound 3, 3-methyl-2-((3-methylbenzo[d]thiazol-2(3H)-ylidene)methyl)benzo[d][1,3]selenazol-3-ium methosulphate]",6.88 ± 0.05,1.02 ± 0.672,2.38 ± 0.161,0.548 ± 0.102,0.5,0.5,
"C[n+]1c(/C=C2\Sc3ccccc3N2CCCS)[se]c2ccccc21 [Compound 5, 2-((3-(3-mercaptopropyl)benzo[d]thiazol-2(3H)-ylidene)methyl)-3-methylbenzo[d][1,3]selenazol-3-ium methosulphate]",,27.9 ± 4.14,> 40,29.6 ± 5.72,2.1,5.1,≥ 7
